From patent publication US20100249163A1, “RENIN INHIBITORS” (priority 2007, published 2010)
pIC50: −log10 of the molar value.

Legend:
renin in human plasma = molecular target: T1, renin in human plasma (Homo sapiens, UniProt P00797); experiment: Inhibition of renin in human plasma; format: biochemical; conditions: human plasma assay
T1 construct: host or cells: recombinant enzyme added to human plasma from 10 normal donors
T1 sequence (P00797 67-406): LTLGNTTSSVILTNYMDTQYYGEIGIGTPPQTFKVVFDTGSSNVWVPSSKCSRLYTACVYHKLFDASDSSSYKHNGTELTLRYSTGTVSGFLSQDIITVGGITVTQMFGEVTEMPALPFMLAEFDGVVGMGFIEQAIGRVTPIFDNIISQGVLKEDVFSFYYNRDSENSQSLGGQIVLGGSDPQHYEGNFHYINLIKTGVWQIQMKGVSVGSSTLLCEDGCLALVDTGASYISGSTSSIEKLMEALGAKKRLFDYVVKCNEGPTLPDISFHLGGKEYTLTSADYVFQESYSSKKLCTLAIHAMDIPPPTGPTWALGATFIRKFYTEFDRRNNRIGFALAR

human recombinant renin = molecular target: T2, human recombinant renin (Homo sapiens, UniProt P00797); experiment: Renin IC50, QFRET (quenched fluorescence resonance energy transfer) assay; format: biochemical; conditions: FRET (quenched fluorescence resonance energy transfer) assay
T2 sequence (P00797 67-406): T1 sequence (P00797 67-406)

| Structure (SMILES) | pIC50 (renin in human plasma) | pIC50 (human recombinant renin) |
| --- | --- | --- |
| COCCCc1cc(CN(C(=O)[C@H]2CNCC[C@]2(O)c2ccn(C)c(=O)c2)C2CC2)cc(OCCOC)c1 (racemic) [Example 23, rac-(3S,4R)—N-cyclopropyl-4-hydroxy-N-[3-(2-methoxyethoxy)-5-(3-methoxypropyl)benzyl]-4-(1-methyl-2-oxo-1,2-dihydropyridin-4-yl)piperidine-3-carboxamide] | 6.87 | 7.12 |
| COCCCc1cc(CN(C(=O)[C@H]2CNCC[C@]2(OC)c2ccc(F)c(F)c2)C2CC2)cc(OCCOC)c1 (racemic) [Example 35, Rac-(3S,4R)—N-cyclopropyl-4-(3,4-difluorophenyl)-4-methoxy-N-[3-(2-methoxyethoxy)-5-(3-methoxypropyl)benzyl]piperidine-3-carboxamide] | 8.33 | 9.00 |
| COCCCc1cc(CN(C(=O)[C@H]2CNCC[C@]2(OCc2ccc(F)cc2)c2ccc(F)c(F)c2)C2CC2)cc(OCCOC)c1 [Example 48, (3S,4R)—N-cyclopropyl-4-(3,4-difluorophenyl)-4-[(4-fluorobenzyl)oxy]-N-[3-(2-methoxyethoxy)-5-(3-methoxypropyl)benzyl]piperidine-3-carboxamide] | 7.21 | 8.96 |
| COCCc1ccc(Cl)c(CN(C(=O)[C@H]2CNCC[C@]2(OCC(O)CO)c2ccc(F)c(F)c2)C2CC2)c1 (stereo partly drawn) [Example 54, (3S,4R)—N-[2-chloro-5-(2-methoxyethyl)benzyl]-N-cyclopropyl-4-(3,4-difluorophenyl)-4-(2,3-dihydroxypropoxy)piperidine-3-carboxamide] | 8.32 | 8.62 |
| COCCCc1cc(CN(C(=O)[C@H]2CNCC[C@]2(O)c2cccnc2)C2CC2)cc(OCCOC)c1 (racemic) [Example 2, rac-(3S,4R)—N-cyclopropyl-4-hydroxy-N-[3-(2-methoxyethoxy)-5-(3-methoxypropyl)benzyl]-4-pyridin-3-ylpiperidine-3-carboxamide] | 6.55 | 6.85 |
| COCCCc1cc(CN(C(=O)[C@H]2CNCC[C@]2(OCc2cnn[nH]2)c2ccc(F)c(F)c2)C2CC2)cc(OCCOC)c1 [Example 51, (3S,4R)—N-cyclopropyl-4-(3,4-difluorophenyl)-N-[3-(2-methoxyethoxy)-5-(3-methoxypropyl)benzyl]-4-(1H-1,2,3-triazol-5-ylmethoxy)piperidine-3-carboxamide] | 7.68 | 8.41 |
| COCCCc1cc(CN(C(=O)[C@H]2CNCC[C@]2(OCCOC)c2ccc(F)c(F)c2)C2CC2)cc(OCCOC)c1 [Example 49, (3S,4R)—N-cyclopropyl-4-(3,4-difluorophenyl)-4-(2-methoxyethoxy)-N-[3-(2-methoxyethoxy)-5-(3-methoxypropyl)benzyl]piperidine-3-carboxamide] | 7.96 | 8.57 |
